The text below walks through data of patent US10206907B2, “Compounds useful for the treatment of degenerative and inflammatory diseases” (GALAPAGOS NV, priority 2008, dated 2019).

SMILES strings stand for the structures.

The target in the assay is Recombinant human JAK1 catalytic domain (Homo sapiens (Human), UniProt P23458). As to the kind of experiment: JAK1 inhibition assay. The format is biochemical. The settings on record: semi-quantitative score. The method, then: Plates were washed 6 times with 300 μL per well of a 75 mM phosphoric acid solution and the bottom of the plates was sealed. 40 μL/well of Microscint-20 was added, the top of the plates was sealed and readout was performed using the Topcount (Perkin Elmer). Kinase activity was calculated by subtracting counts per minute (cpm) obtained in the presence of a positive control inhibitor (10 μM staurosporine) from cpm obtained in the presence of vehicle. The ability of a test compound to inhibit this activity was determined as: Percentage inhibition=((cpm determined for sample with test compound present−cpm determined for sample with positive control inhibitor) divided by (cpm determined in the presence of vehicle−cpm determined for sample with positive control inhibitor))*100%.
Chain of Recombinant human JAK1 catalytic domain (P23458 850-1154): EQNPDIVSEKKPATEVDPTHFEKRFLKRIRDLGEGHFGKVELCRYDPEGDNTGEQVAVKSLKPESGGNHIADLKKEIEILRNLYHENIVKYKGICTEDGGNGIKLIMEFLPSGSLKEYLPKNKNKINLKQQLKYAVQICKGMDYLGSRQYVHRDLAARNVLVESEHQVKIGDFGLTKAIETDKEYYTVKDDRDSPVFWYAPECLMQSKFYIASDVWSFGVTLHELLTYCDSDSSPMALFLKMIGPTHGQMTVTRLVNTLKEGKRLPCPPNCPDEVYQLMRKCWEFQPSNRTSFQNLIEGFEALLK
Dose dilution series were prepared for the compounds enabling the testing of dose-response effects in the JAK1 assay and the calculation of the IC50 for each compound.
On to `O=C(Nc1nc2cccc(-c3ccc(N4CCNCC4)nc3)n2n1)C1CC1` [Compound 61, N-(5-(6-(piperazin-1-yl)pyridin-3-yl)-[1,2,4]triazolo[1,5-a]pyridin-2-yl)cyclopropanecarboxamide], for which the IC50 (usually the midpoint of a concentration-inhibition curve) is over 1 µM. As for `Cc1nc(COc2ccc(-c3cccc4nc(NC(=O)C5CC5)nn34)cc2)c(C)o1` [Compound 63, N-(5-(4-((2,5-dimethyloxazol-4-yl)methoxy)phenyl)-[1,2,4]triazolo[1,5-a]pyridin-2-yl)cyclopropanecarboxamide], the IC50 lay in the range of 0.101 to 0.5 µM. Take `Cc1nn(C)cc1S(=O)(=O)Nc1ccc(-c2cccc3nc(NC(=O)C4CC4)nn23)cc1` [Compound 65, N-(5-(4-(1,3-dimethyl-1H-pyrazole-4-sulfonamido)phenyl)-[1,2,4]triazolo[1,5-a]pyridin-2-yl)cyclopropanecarboxamide]: the IC50 was in the range of 0.101 to 0.5 µM.

`O=C(Nc1nc2cccc(-c3ccc(-c4cn[nH]c4)cc3)n2n1)C1CC1` [Compound 67, N-(5-(4-(1H-pyrazol-4-yl)phenyl)-[1,2,4]triazolo[1,5-a]pyridin-2-yl)cyclopropanecarboxamide]: the IC50 lay in the range of 0.101 to 0.5 µM. On to `O=C(Nc1nc2cccc(-c3ccc(-c4cccnc4)nc3)n2n1)C1CC1` [Compound 68, N-(5-(2,3′-bipyridin-5-yl)-[1,2,4]triazolo[1,5-a]pyridin-2-yl)cyclopropanecarboxamide], for which the IC50 lay in the range of 0.101 to 0.5 µM. The value for `CCCc1cc(C(=O)Nc2ccc(-c3cccc4nc(NC(=O)C5CC5)nn34)cc2)n(C)n1` [Compound 69] was 0.101 to 0.5 µM; that for `O=C(Nc1ccc(-c2cccc3nc(NC(=O)C4CC4)nn23)cc1)C1CCC1` [Compound 70, N-(4-(2-(cyclopropanecarboxamido)-[1,2,4]triazolo[1,5-a]pyridin-5-yl)phenyl)cyclobutanecarbox-amide] was 0.101 to 0.5 µM. Then `CCOCC1CCN(C(=O)c2ccc(-c3cccc4nc(NC(=O)C5CC5)nn34)cc2)CC1` [Compound 73], with 0.101 to 0.5 µM; and `O=C(NCCN1CCCC1)c1ccc(-c2cccc3nc(NC(=O)C4CC4)nn23)cc1` [Compound 80, 4-(2-(cyclopropanecarboxamido)-[1,2,4]lriazoIo[1,5-a]pyridin-5-yl)-N-(2-(pyrrolidin-l-yl)ethyl)benzamide], with 0.101 to 0.5 µM. For the compound `O=C(NCCCN1CCOCC1)c1ccc(-c2cccc3nc(NC(=O)C4CC4)nn23)cc1` [Compound 81, 4-(2-(cyclopropanecarboxamido)-[1,2,4]triazolo[1,5-a]pyridin-5-yl)-N-(3-morpholinopropyl)benzamide], the IC50 lay within 0.101 to 0.5 µM. On to `O=C(Nc1nc2cccc(-c3ccc(C(=O)N4CCC(c5ccc(Cl)cc5)CC4)cc3)n2n1)C1CC1` [Compound 86], for which the IC50 is under 0.1 µM. The value for `O=C(Nc1nc2cccc(-c3ccc(NCCC4CCOCC4)nc3)n2n1)C1CC1` [Compound 93, N-(5-(6-(2-(tetrahydro-2H-pyran-4-yl)ethylamino)pyridin-3-yl)-[1,2,4]triazolo[1,5-a]pyridin-2-yl)cyclopropanecarboxamide] was 0.101 to 0.5 µM; that for `O=C(Nc1nc2cccc(-c3ccc(C(=O)N4CCC(CCN5CCOCC5)CC4)cc3)n2n1)C1CC1` [Compound 94, N-(5-(4-(4-(2-morpholinoethyl)piperidine-1-carbonyl)phenyl)-[l,2,4]triazolo[1,5-a]pyridin-2-yl)cyclopropanecarboxamide] was 0.101 to 0.5 µM; that for `O=C(Nc1nc2cccc(-c3ccnc(N4CCC(CCN5CCOCC5)CC4)c3)n2n1)C1CC1` [Compound 95, N-(5-(2-(4-(2-morpholinoethyl)piperidin-1-yl)pyridin-4-yl)-[1,2,4]triazolo[1,5-a]pyridin-2-yl)cyclopropanecarboxamide] was over 1 µM. Then `O=C(Nc1nc2cccc(-c3ccc(C(=O)N4CCC(N5CCOCC5)CC4)cc3)n2n1)C1CC1` [Compound 101, N-(5-(4-(4-morpholinopiperidine-1-carbonyl)phenyl)-[1,2,4]triazolo[1,5-a]pyridin-2-yl)cyclopropanecarboxamide], with 0.101 to 0.5 µM. Turning to `CC(C)(CN1CCOCC1)NC(=O)c1ccc(-c2cccc3nc(NC(=O)C4CC4)nn23)cc1` [Compound 102, 4-(2-(cyclopropanecarboxamido)-[1,2,4]triazolo[1,5-a]pyridin-5-yl)-N-(2-methyl-1-morpholinopropan-2-yl)benzamide], the IC50 is 0.101 to 0.5 µM. For `CN(Cc1ccccc1)C1CCN(C(=O)c2ccc(-c3cccc4nc(NC(=O)C5CC5)nn34)cc2)CC1` [Compound 103, N-(5-(4-(4-(benzyl(methyl)amino)piperidine-1-carbonyl)phenyl)-[1,2,4]triazolo[1,5-a]pyridin-2-yl)cyclopropanecarboxamide], the IC50 is over 1 µM.

For `COc1ccc(CCN(C)C(=O)c2ccc(-c3cccc4nc(NC(=O)C5CC5)nn34)cc2)cc1OC` [Compound 105, 4-(2-(cyclopropanecarboxamido)-[1,2,4]triazolo[1,5-a]pyridin-5-yl)-N-(3,4-dimethoxyphenethyl)-N-methylbenzamide], the IC50 was in the range of 0.101 to 0.5 µM.

Turning to `O=C(Nc1nc2cccc(-c3ccc(C(=O)N4CCC(Oc5cccnc5)CC4)cc3)n2n1)C1CC1` [Compound 110, N-(5-(4-(4-(pyridin-3-yloxy)piperidine-1-carbonyl)phenyl)-[1,2,4]triazolo[1,5-a]pyridin-2-yl)cyclopropanecarboxamide], the IC50 fell in the range of 0.101 to 0.5 µM.

As to `O=C(Nc1nc2cccc(-c3ccnc(N4CCC(CCc5ccccc5)CC4)c3)n2n1)C1CC1` [Compound 112, N-(5-(2-(4-phenethylpiperidin-1-yl)pyridin-4-yl)-[1,2,4]triazolo[1,5-a]pyridin-2-yl)cyclopropanecarboxamide], the IC50 was over 1 µM. The value for `O=C(Nc1nc2cccc(-c3ccc(OCC(=O)N4CCCCC4)cc3)n2n1)C1CC1` [Compound 117, N-(5-(4-(2-oxo-2-(piperidin-1-yl)ethoxy)phenyl)-[1,2,4]triazolo[1,5-a]pyridin-2-yl)cyclopropanecarboxamide] was over 1 µM. The value for `CN1CCN(Cc2ccc(COc3ccc(-c4cccc5nc(NC(=O)C6CC6)nn45)cc3)cc2)CC1` [Compound 126, N-(5-(4-(4-((4-methylpiperazin-1-yl)methyl)benzyloxy)phenyl)-[1,2,4]triazolo[1,5-a]pyridin-2-yl)cyclopropanecarboxamide] was 0.101 to 0.5 µM. Turning to `O=C(Nc1nc2cccc(-c3ccc(OCCc4cccnc4)cc3)n2n1)C1CC1` [Compound 127, N-(5-(4-(2-(pyridin-3-yl)ethoxy)phenyl)-[1,2,4]triazolo[1,5-a]pyridin-2-yl)cyclopropanecarboxamide], the IC50 fell in the range of 0.101 to 0.5 µM.

`O=C(Nc1nc2cccc(-c3ccc(C(=O)N4CCC(c5nc6ccccc6[nH]5)CC4)cc3)n2n1)C1CC1` [Compound 128, N-(5-(4-(4-(1H-benzo[d]imidazol-2-yl)piperidine-1-carbonyl)phenyl)-[1,2,4]triazolo[1,5-a]pyridin-2-yl)cyclopropanecarboxamide]: the IC50 was in the range of 0.501 to 1 µM.

Consider `O=C(Nc1nc2cccc(-c3ccc(N4CCOCC4)cc3)n2n1)C1CC1` [Compound 129, N-(5-(4-morpholinophenyl)-[1,2,4]triazolo[1,5-a]pyridin-2-yl)cyclopropanecarboxamide], for which the IC50 was over 1 µM.

In the case of `CN1CCN(Cc2ccc(-c3cccc4nc(NC(=O)C5CC5)nn34)cc2)CC1` [Compound 130, N-(5-(4-((4-methylpiperazin-1-yl)methyl)phenyl)-[1,2,4]triazolo[1,5-a]pyridin-2-yl)cyclopropanecarboxamide], the IC50 was over 1 µM.

Take `COc1ccccc1C1CCN(C(=O)c2ccc(-c3cccc4nc(NC(=O)C5CC5)nn34)cc2)CC1` [Compound 131, N-(5-(4-(4-(2-methoxyphenyl)piperidine-1-carbonyl)phenyl)-[1,2,4]triazolo[1,5-a]pyridin-2-yl)cyclopropanecarboxamide]: the IC50 fell in the range of 0.101 to 0.5 µM.

Consider `O=C(Nc1nc2cccc(-c3ccc(C(=O)N4CCC(O)(c5ccc(Cl)cc5)CC4)cc3)n2n1)C1CC1` [Compound 132], for which the IC50 was 0.101 to 0.5 µM.

With `Cc1ccccc1OCC1CCN(C(=O)c2ccc(-c3cccc4nc(NC(=O)C5CC5)nn34)cc2)CC1` [Compound 133], the concentration for half-maximal inhibition (IC50) is 0.101 to 0.5 µM. With `CC(C)N(Cc1ccc(N2CCCCC2)cc1)C(=O)c1ccc(-c2cccc3nc(NC(=O)C4CC4)nn23)cc1` [Compound 135, 4-(2-(cyclopropanecarboxamido)-[1,2,4]triazolo[1,5-a]pyridin-5-yl)-N-isopropyl-N-(4-(piperidin-1-yl)benzyl)benzamide], the IC50 was in the range of 0.101 to 0.5 µM.

Regarding `CCCN(CC1CCCO1)C(=O)c1ccc(-c2cccc3nc(NC(=O)C4CC4)nn23)cc1` (stereo not shown) [Compound 136, 4-(2-(cyclopropanecarboxamido)-[1,2,4]triazolo[1,5-a]pyridin-5-yl)-N-propyl-N-((tetrahydrofuran-2-yl)methyl)benzamide], the IC50 lay in the range of 0.101 to 0.5 µM. Regarding `O=C(Nc1nc2cccc(-c3ccc(CN4CCCCC4)cc3)n2n1)C1CC1` [Compound 139, N-(5-(4-(pipcridin-1-ylmethyl)phenyl)-[1,2,4]triazolo[1,5-a]pyridin-2-yl)cyclopropanecarboxamide], the IC50 was in the range of 0.501 to 1 µM. As for `NC(=O)C1CCN(Cc2ccc(-c3cccc4nc(NC(=O)C5CC5)nn34)cc2)CC1` [Compound 140], the concentration for half-maximal inhibition (IC50) lay in the range of 0.101 to 0.5 µM. With `CC(=O)N1CCN(Cc2ccc(-c3cccc4nc(NC(=O)C5CC5)nn34)cc2)CC1` [Compound 141, N-(5-(4-((4-acetoylpiperazin-1-yl)methyl)phenyl)-[1,2,4]triazolo[1,5-a]pyridin-2-yl)cyclopropanecarboxamide], the IC50 is 0.101 to 0.5 µM.
